Publication PMC8356711 (Research in Pharmaceutical Sciences, 2021)
Entries after “also recorded” stand apart in the source; their conditions may differ.

Biological target: T1, mushroom tyrosinase (Agaricus bisporus, UniProt C7FF04)
Assay: not given
Details: Lineweaver-Burk plot, L-DOPA substrate

T1 sequence (C7FF04 1-392): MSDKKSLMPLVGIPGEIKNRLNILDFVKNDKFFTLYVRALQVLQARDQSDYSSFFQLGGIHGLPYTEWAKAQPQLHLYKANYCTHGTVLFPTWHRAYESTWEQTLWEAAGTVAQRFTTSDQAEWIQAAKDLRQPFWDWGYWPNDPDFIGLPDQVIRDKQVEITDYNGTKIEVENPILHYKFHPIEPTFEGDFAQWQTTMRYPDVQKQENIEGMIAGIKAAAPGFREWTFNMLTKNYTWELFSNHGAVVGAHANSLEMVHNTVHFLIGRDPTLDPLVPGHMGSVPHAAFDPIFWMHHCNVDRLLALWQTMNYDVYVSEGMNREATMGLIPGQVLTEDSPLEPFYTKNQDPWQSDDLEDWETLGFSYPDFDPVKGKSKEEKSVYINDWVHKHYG

Question: How did the inhibition type turn out when `COc1cc(/C=C2\CCc3cc(O)ccc3C2=O)cc(OC)c1OC` [C2, (E) - 6-hydroxy - 2-(3,4,5-trimethoxy-benzylidene)-3,4-dihydronaphthalen-1(2H)-one] was run?
Answer: Its inhibition type is “competitively; also recorded: competitive tyrosinase inhibitor”.

Biological target: T1, mushroom tyrosinase
Assay: biochemical
Details: not given

Question: With `COc1ccc(/C=C2\CCc3cc(O)ccc3C2=O)cc1` [C1, (E)-6-hydroxy-2-(4-methoxybenzylidene)-3,4-dihydronaphthalen-1(2H)-one] as the compound, how does the IC50 read?
Answer: The IC50 was 17.6 ± 1.1 µM.

Question: Which IC50 does the source give for `COc1cc(/C=C2\CCc3cc(O)ccc3C2=O)cc(OC)c1OC` [C2, (E) - 6-hydroxy - 2-(3,4,5-trimethoxy-benzylidene)-3,4-dihydronaphthalen-1(2H)-one] here?
Answer: Its IC50 is 8.8 ± 1.8 µM.

Question: Which IC50 does the source give for `COc1ccccc1/C=C1\CCc2cc(O)ccc2C1=O` [C3, (E)-6-hydroxy-2-(2-methoxybenzylidene)-3,4-dihydronaphthalen-1(2H)-one] here?
Answer: The IC50 was 11.1 ± 2.5 µM.

Question: Which IC50 does the source give for `CCOc1cc(/C=C2\CCc3cc(O)ccc3C2=O)ccc1O` [C4, (E)-2-(3-ethoxy-4-hydroxybenzylidene)-6-hydroxy-3,4-dihydronaphthalen-1(2H)-one] here?
Answer: Its IC50 is 21.4 ± 3.1 µM.

Question: For `O=C1/C(=C/c2ccc(O)cc2)CCc2cc(O)ccc21` [C5, (E)-6-hydroxy-2-(4-hydroxybenzylidene)-3,4-dihydronaphthalen-1(2H)-one], which IC50 is on record?
Answer: The IC50 was 48.6 ± 2.9 µM.

Question: With `COc1ccc(/C=C2\CCc3cc(O)ccc3C2=O)cc1OC` [C6, (E)-2-(3,4-dimethoxybenzylidene)-6-hydroxy-3,4-dihydronaphthalen-1(2H)-one] as the compound, how does the IC50 read?
Answer: The IC50 was 17.6 ± 2.4 µM.

Question: Which IC50 does the source give for `O=C1/C(=C/c2ccc(Cl)cc2)CCc2cc(O)ccc21` [C7, (E)-2-(4-chlorobenzylidene)-6-hydroxy-3,4-dihydronaphthalen-1(2H)-one] here?
Answer: The IC50 was 22.4 ± 3.1 µM.

Question: With `COc1cc(/C=C2\CCc3cc(O)ccc3C2=O)cc(OC)c1O` [C9, (E)-6-hydroxy-2-(4-hydroxy-3,5-dimethoxy-benzylidene)-3,4-dihydronaphthalen-1(2H)-one] as the compound, how does the IC50 read?
Answer: Its IC50 is over 50 µM.
